According to paper PMC7581251 (ACS Omega, 2020):

Assays:
GSK3β [1] = molecular target: T1, GSK3β (Homo sapiens, UniProt P49841); experiment: Promega ADP-Glo kinase assay, GSK3β inhibition; type: biochemical; settings: for inhibition at 100 µM: read-out: Percent Inhibition of GSK3β, 100 μM, single point, n = 3; for IC50: IC50 GSK3β (ADP-Glo), 10-point three-fold dilution from 100 μM, n = 2; for Hill slope GSK3β (ADP-Glo): four-parameter non-linear regression
GSK3α [2] = molecular target: T2, GSK3α (Homo sapiens, UniProt P49840); experiment: Z'LYTE kinase assay; type: biochemical; settings: for IC50: IC50 GSK3α (Z'LYTE), values of main text and Table S3; for Selectivity GSK3β versus GSK3α: from Z'LYTE IC50 values
T2 sequence (P49840 whole entry): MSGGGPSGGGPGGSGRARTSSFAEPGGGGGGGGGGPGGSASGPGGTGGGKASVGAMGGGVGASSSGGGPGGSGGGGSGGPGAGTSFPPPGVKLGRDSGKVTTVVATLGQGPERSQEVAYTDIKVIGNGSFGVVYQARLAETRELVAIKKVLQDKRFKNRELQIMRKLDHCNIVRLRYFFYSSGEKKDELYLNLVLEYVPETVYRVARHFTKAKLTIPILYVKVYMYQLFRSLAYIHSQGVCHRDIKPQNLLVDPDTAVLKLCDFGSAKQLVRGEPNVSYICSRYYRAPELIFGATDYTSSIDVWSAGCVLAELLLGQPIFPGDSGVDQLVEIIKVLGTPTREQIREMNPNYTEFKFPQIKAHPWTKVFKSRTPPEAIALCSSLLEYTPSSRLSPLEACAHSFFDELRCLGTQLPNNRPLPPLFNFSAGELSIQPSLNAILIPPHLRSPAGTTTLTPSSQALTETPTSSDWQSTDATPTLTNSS

GSK3β [3] = molecular target: T1, GSK3β; experiment: Z'LYTE kinase assay; type: biochemical; settings: for Hill slope GSK3β (Z'LYTE): four-parameter non-linear regression
[4] = cohort of diabetic individuals ref 74; cited from earlier work
GSKβ = settings: cited from earlier work
GSK3α [5] = molecular target: T2, GSK3α; settings: cited from earlier work
CYP2D6 = settings: in vitro ref 75; cited from earlier work

T1 sequence (P49841 whole entry): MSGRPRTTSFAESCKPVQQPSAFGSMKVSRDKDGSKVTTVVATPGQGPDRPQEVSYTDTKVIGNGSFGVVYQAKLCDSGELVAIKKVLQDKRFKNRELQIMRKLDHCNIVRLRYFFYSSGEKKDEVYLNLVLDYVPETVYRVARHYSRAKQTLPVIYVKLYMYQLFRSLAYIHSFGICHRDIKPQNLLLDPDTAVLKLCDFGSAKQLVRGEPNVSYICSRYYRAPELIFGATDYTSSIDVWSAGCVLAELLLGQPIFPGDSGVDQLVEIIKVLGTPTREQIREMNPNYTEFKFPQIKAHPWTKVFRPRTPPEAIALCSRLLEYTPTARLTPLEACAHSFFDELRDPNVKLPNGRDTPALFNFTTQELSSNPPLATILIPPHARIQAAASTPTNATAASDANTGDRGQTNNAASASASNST

## COC(=O)C1=C(C)NC(C)=C(C(=O)OC)C1c1ccccc1[N+](=O)[O-] [Nifedipine]
GSK3β [1]
  inhibition at 100 µM: 69%

## CC(=O)Nc1ncc([N+](=O)[O-])s1 [Nithiamide]
GSK3α [2]
  IC50: 4.4 µM
  Selectivity GSK3β versus GSK3α: non-selective
GSK3β [1]
  IC50: 8.5 µM
  Hill slope GSK3β (ADP-Glo): −0.80
  inhibition at 100 µM: > 70%
GSK3β [3]
  IC50: 5 µM
  Hill slope GSK3β (Z'LYTE): 1.26

## CN(C)C[C@@H]1CCn2cc(c3ccccc32)C2=C(C(=O)NC2=O)c2cn(c3ccccc23)CCO1 [Ruboxistaurin]
[4]
  Clinical safety: safe up to 32 mg/day for 4 years
GSK3β [1]
  Hill slope GSK3β (ADP-Glo): −0.68
  inhibition at 100 µM: 96%
GSK3β [3]
  Hill slope GSK3β (Z'LYTE): 0.98
GSKβ
  Activity for GSKβ in published kinase screening: micromolar activity
GSK3α [5]
  Activity for GSK3α in published kinase screening: micromolar activity
CYP2D6
  Interaction with CYP2D6: potent interactions

## c1ccc2[nH]c(-c3cscn3)nc2c1 [Thiabendazole]
GSK3α [2]
  IC50: 60.8 µM
  Selectivity GSK3β versus GSK3α: non-selective
GSK3β [1]
  IC50: 12.1 µM
  Hill slope GSK3β (ADP-Glo): −0.68
  inhibition at 100 µM: > 70%
GSK3β [3]
  IC50: 54.8 µM
  Hill slope GSK3β (Z'LYTE): 1.10
